Source: ChEMBL document CHEMBL3112526, “20S proteasome as novel biological target for organochalcogenanes” (Eur J Med Chem, 2014)
Calls of active or inactive are those of the source. No cut-off for these calls is given here.

What was measured:
Equus caballus [1] = organism: Equus caballus; test: Inhibition of horse erythrocytes trypsin like activity of beta2-20S proteasome using z-ARR-AMC as substrate at 100 uM measured for 60 mins by fluorescence assay
Equus caballus [2] = organism: Equus caballus; test: Inhibition of horse erythrocytes caspase like activity of beta1-20S proteasome using z-LLE-AMC as substrate at 100 uM measured for 60 mins by fluorescence assay
[3] = biological target: Proteasome subunit beta type-2 (Mus musculus) (UniProt Q9R1P3); test: Inhibition of trypsin like activity of beta2-20S proteasome in mouse NIH-3T3 cells at 2 times IC50; assay type: cell-based; conditions: NIH3T3
Chain of Proteasome subunit beta type-2 (Mus musculus) (Q9R1P3 whole entry): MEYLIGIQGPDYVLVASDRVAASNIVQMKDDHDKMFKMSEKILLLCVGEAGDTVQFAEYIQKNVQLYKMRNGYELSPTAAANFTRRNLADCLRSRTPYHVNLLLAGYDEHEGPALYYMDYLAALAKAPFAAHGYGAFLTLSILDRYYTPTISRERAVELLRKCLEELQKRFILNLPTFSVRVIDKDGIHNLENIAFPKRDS

[4] = Inhibition of horse erythrocytes trypsin like activity of beta2-20S proteasome using z-ARR-AMC as substrate measured for 60 mins by fluorescence assay; parameters: species or system Equus caballus
Equus caballus [5] = organism: Equus caballus; test: Inhibition of horse erythrocytes chymotrypsin like activity of beta5-20S proteasome using suc-LLVY-AMC as substrate at 100 uM measured for 60 mins by fluorescence assay
Saccharomyces cerevisiae = test: Inhibition of yeast 20S proteasome
[6] = Cytotoxicity against mouse NIH/3T3 cells assessed as cell viability at 20 umol/L after 2 hrs by MTT assay; assay type: cell-based, NIH3T3; conditions: read-out: Activity
[7] = Chemical stability of the compound under aqueous condition assessed as drug transformation; assay type: physicochemical; conditions: buffer
NIH3T3 [8] = test: Cytotoxicity against mouse NIH/3T3 cells assessed as cell viability at 10 to 100 umol/L after 2 hrs by MTT assay; assay type: cell-based; conditions: nih3t3, 2 h
[9] = Chemical stability of the compound under aqueous condition; assay type: physicochemical; conditions: buffer
[10] = Cytotoxicity against mouse NIH/3T3 cells assessed as cell viability at 0.5 to 10 umol/L after 2 hrs by MTT assay; assay type: cell-based, NIH3T3; conditions: read-out: Activity
NIH3T3 [11] = test: Cytotoxicity against mouse NIH/3T3 cells assessed as cell viability after 2 hrs by MTT assay; assay type: cell-based; conditions: nih3t3, 2 h
NIH3T3 [12] = test: (§1) Cytotoxicity against mouse NIH/3T3 cells assessed as cell viability at 80 umol/L after 2 hrs by MTT assay; assay type: cell-based; conditions: nih3t3, 2 h, 80 µM
[13] = Cytotoxicity against mouse NIH/3T3 cells assessed as cell viability at 40 umol/L after 2 hrs by MTT assay; assay type: cell-based, NIH3T3; conditions: read-out: Activity
[14] = Cytotoxicity against mouse NIH/3T3 cells assessed as cell viability at 10 umol/L after 2 hrs by MTT assay; assay type: cell-based, NIH3T3; conditions: read-out: Activity
[15] = as §1; assay type: cell-based, NIH3T3; conditions: NIH/3T3 cells, read-out: Activity
[16] = Cytotoxicity against mouse NIH/3T3 cells assessed as cell viability at 1 to 40 umol/L after 2 hrs by MTT assay; assay type: cell-based, NIH3T3; conditions: read-out: Activity

SMILES	inhibition (Equus caballus [1])	inhibition (Equus caballus [2])	IC50 [4]	inhibition (Equus caballus [5])	inhibition (Saccharomyces cerevisiae)	further results
CCCC[Se]1(Br)c2ccccc2C[O+]1C.[Br-] (stereo not drawn)	90%	inactive	16 µM	inactive	inactive	inhibition [3]: Active; viability at 2 h, 20 µM [6]: 75%; Stability [7]: Unstable
CCCC[Te](Br)(Br)c1ccccc1[C@@H](C)OC	90%	inactive	8 µM	inactive	inactive	
CCCC[Se]1(Cl)c2ccccc2[C@H](C)[O+]1C (stereo partly drawn)	> 50%	inactive	32 µM	inactive	inactive	
CCCC[Se]c1ccccc1[C@H](C)OC	inactive					
CCCC[Se]1(Br)c2ccccc2[C@H](C)[O+]1C (stereo partly drawn)	> 50%	inactive	19 µM	inactive	inactive	
CCCC[Te](Cl)(Cl)c1ccccc1[C@@H](C)OC	> 50%	inactive	4 µM	inactive	inactive	
CCCC[Se]1(Br)c2ccccc2[C@@H](C)[O+]1C (stereo partly drawn)	> 50%	inactive	26 µM	inactive	inactive	
CCCC[Te]c1ccccc1[C@H](C)OC	inactive					
CCCC[Te](Cl)(Cl)c1ccccc1COC	90%	inactive	3.5 µM	inactive	inactive	inhibition [3]: inactive; Activity (NIH3T3 [8]): Non-toxic; Stability [9]: Stable; viability at 2 h [10]: 60%
CCCC[Se]1(Cl)c2ccccc2[C@@H](C)[O+]1C (stereo partly drawn)	> 50%	inactive	34 µM	inactive	inactive	
CCCC[Te]c1ccccc1COC	inactive					
CCCC[Se]1(Cl)c2ccccc2C[O+]1C.[Cl-] (stereo not drawn)	90%	inactive	35 µM	inactive	inactive	inhibition [3]: Active; Activity (NIH3T3 [11]): Dose-dependent effect; Activity (NIH3T3 [12]): Non-toxic; viability at 2 h, 40 µM [13]: 40%; viability at 2 h, 10 µM [14]: 50%; Stability [7]: Unstable
CCCC[Te](Br)(Br)c1ccccc1[C@H](C)OC	> 50%	inactive	15 µM	inactive	inactive	
CCCC[Se]c1ccccc1COC	inactive					
CCCC[Te]c1ccccc1[C@@H](C)OC	inactive					
CCCC[Te](Cl)(Cl)c1ccccc1[C@H](C)OC	> 50%	inactive	5.5 µM	inactive	inactive	
CCCC[Se]c1ccccc1[C@@H](C)OC	inactive					
CCCC[Te](Br)(Br)c1ccccc1COC	90%	inactive	4 µM	inactive	inactive	inhibition [3]: inactive; viability at 2 h, 80 µM [15]: > 50%; Stability [9]: Stable; viability at 2 h [16]: 60%
